Test results reported in PubChem BioAssay AID192 (DTP/NCI, 2004).
Where “and” joins values, the source holds several entries; their conditions need not be identical. Identical values can stand only once. Toxic doses and inconclusive results are not listed. Square brackets hold non-standard residues; d marks the D form. Peptide text beside a SMILES is read from it. ξ: configuration not given here. ξH = NC(Cc1c[nH]cn1)C(=O)O; ξF = NC(Cc1ccccc1)C(=O)O

System: BDF1 mice, B16 melanoma ip, median survival T/C
Test: NCI In Vivo Anticancer Drug Screen. Data for tumor model B16 Melanoma (intraperitoneal) in B6D2F1 (BDF1) mice
Conditions: endpoint: median survival time, higher = longer survival
Procedure, shortened: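 Compounds were tested in mice carrying transplantable tumors. Survival or tumor size was recorded, and each value is the treated-group measurement (T) divided by that of the vehicle-treated control group (C).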

[1] = dose: 50.0 mg/kg/injection, schedule: Q01DX009 (ip), vehicle: saline with Tween-80
[2] = dose: 100.0 mg/kg/injection, schedule: Q01DX009 (ip), vehicle: saline with Tween-80
[3] = dose: 200.0 mg/kg/injection, schedule: Q01DX009 (ip), vehicle: saline with Tween-80
[4] = dose: 6.25 mg/kg/injection, schedule: Q01DX009 (ip), vehicle: Klucel (hydroxypropylcellulose) (HPC)
[5] = dose: 12.5 mg/kg/injection, schedule: Q01DX009 (ip), vehicle: Klucel (hydroxypropylcellulose) (HPC)
[6] = dose: 25.0 mg/kg/injection, schedule: Q01DX009 (ip), vehicle: Klucel (hydroxypropylcellulose) (HPC)
[7] = dose: 100.0 mg/kg/injection, schedule: Q01DX009 (ip), vehicle: saline
[8] = dose: 200.0 mg/kg/injection, schedule: Q01DX009 (ip), vehicle: saline
[9] = dose: 400.0 mg/kg/injection, schedule: Q01DX009 (ip), vehicle: saline
[10] = dose: 50.0 mg/kg/injection, schedule: Q01DX009 (ip), vehicle: Klucel (hydroxypropylcellulose) (HPC)
[11] = dose: 100.0 mg/kg/injection, schedule: Q01DX009 (ip), vehicle: Klucel (hydroxypropylcellulose) (HPC)
[12] = dose: 200.0 mg/kg/injection, schedule: Q01DX009 (ip), vehicle: Klucel (hydroxypropylcellulose) (HPC)
[13] = dose: 5.0 mg/kg/injection, schedule: Q01DX009 (ip), vehicle: saline with Tween-80
[14] = dose: 10.0 mg/kg/injection, schedule: Q01DX009 (ip), vehicle: saline with Tween-80
[15] = dose: 6.25 mg/kg/injection, schedule: Q01DX009 (ip), vehicle: saline with Tween-80
[16] = dose: 12.5 mg/kg/injection, schedule: Q01DX009 (ip), vehicle: saline with Tween-80
[17] = dose: 25.0 mg/kg/injection, schedule: Q01DX009 (ip), vehicle: saline with Tween-80
[18] = dose: 1.25 mg/kg/injection, schedule: Q01DX009 (ip), vehicle: saline with Tween-80

## CC(C)(C)OC(=O)n1cnc(CC(NC(=O)OCc2ccccc2)C(=O)O)c1 (stereo unspecified)
[1]
  T/C: 98 % of control
[2]
  T/C: 89 % of control
[3]
  T/C: 92 % of control

## CCCCCCCCCCCCCCCCCN
[4]
  T/C: 103 % of control
[5]
  T/C: 100 % of control
[6]
  T/C: 93 % of control

## CCC(CC)(COC(N)=O)COC(N)=O
dose: 0.78 mg/kg/injection, schedule: Q01DX009 (ip), vehicle: Klucel (hydroxypropylcellulose) (HPC)
  T/C: 89 % of control
dose: 1.56 mg/kg/injection, schedule: Q01DX009 (ip), vehicle: Klucel (hydroxypropylcellulose) (HPC)
  T/C: 93 % of control
dose: 3.12 mg/kg/injection, schedule: Q01DX009 (ip), vehicle: Klucel (hydroxypropylcellulose) (HPC)
  T/C: 95 % of control
[4]
  T/C: 97 % of control
[5]
  T/C: 86 % of control

## CCOC(=O)/C(C(C)=O)=C(/O)c1ccc(OC(F)(F)C(F)Cl)cc1OC(F)(F)C(F)Cl.CCOC(=O)/C(C(C)=O)=C(/O)c1ccc(OC(F)(F)C(F)Cl)cc1OC(F)(F)C(F)Cl.[Cu] (stereo unspecified)
[5]
  T/C: 89 % of control
[6]
  T/C: 88 % of control

## Cc1c(Cl)cccc1NS(=O)(=O)c1cccc([N+](=O)[O-])c1
[1]
  T/C: 100 % of control
[2]
  T/C: 91 % of control
[3]
  T/C: 98 % of control

## C[NH-].C[NH-].[Cl][Pt+2][Cl]
dose: 0.39 mg/kg/injection, schedule: Q01DX009 (ip), vehicle: saline
  T/C: 102 % of control
dose: 0.78 mg/kg/injection, schedule: Q01DX009 (ip), vehicle: saline
  T/C: 104 % of control
dose: 1.56 mg/kg/injection, schedule: Q01DX009 (ip), vehicle: saline
  T/C: 112 % of control
dose: 3.13 mg/kg/injection, schedule: Q01DX009 (ip), vehicle: saline
  T/C: 121 % of control
dose: 8.0 mg/kg/injection, schedule: Q01DX009 (ip), vehicle: saline with Tween-80
  T/C: 154 % of control

## NCC(=O)NCC(=O)NC(Cc1ccccc1)C(=O)O (stereo not drawn) (H-Gly-Gly-[ξF]-OH)
[7]
  T/C: 90 % of control
dose: 100.0 mg/kg/injection, schedule: Q04DX003 (ip), vehicle: saline
  T/C: 92 % of control
[8]
  T/C: 90 % of control
dose: 200.0 mg/kg/injection, schedule: Q04DX003 (ip), vehicle: saline
  T/C: 97 % of control
[9]
  T/C: 93 % of control
dose: 400.0 mg/kg/injection, schedule: Q04DX003 (ip), vehicle: saline
  T/C: 90 % of control

## C[N+](C)(C)C.N=C=O.N=C=O.N=C=O.N=C=O.[Co+2]
dose: 12.5 mg/kg/injection, schedule: Q04DX003 (ip), vehicle: saline with Tween-80
  T/C: 97 % of control
dose: 25.0 mg/kg/injection, schedule: Q04DX003 (ip), vehicle: saline with Tween-80
  T/C: 90 % of control
dose: 50.0 mg/kg/injection, schedule: Q04DX003 (ip), vehicle: saline with Tween-80
  T/C: 92 % of control

## NCC(=O)NCC(=O)NC(Cc1cnc[nH]1)C(=O)O (stereo not drawn) (H-Gly-Gly-[ξH]-OH)
dose: 50.0 mg/kg/injection, schedule: Q01DX009 (ip), vehicle: saline
  T/C: 92 % of control
[7]
  T/C: 99 % of control
[8]
  T/C: 88 % of control
[9]
  T/C: 101 % of control

## Cc1cc(N(CCOS(C)(=O)=O)CCOS(C)(=O)=O)ccc1C=Nc1ccc(-c2nc(Cc3ccccc3)sc2C)cc1
[6]
  T/C: 165 % of control
[10]
  T/C: 174 % of control
[11]
  T/C: 107 % of control

## O=C(NC(CSC(=O)OCc1ccccc1)C(=O)Oc1ccc([N+](=O)[O-])cc1)OCc1ccccc1 (stereo unspecified)
[10]
  T/C: 105 % of control
[12]
  T/C: 100 % of control

## C1CC[N-]CC1.C1CC[N-]CC1.CS(C)=O.[Cl][Rh]([Cl])[Cl]
[13]
  T/C: 99 % of control
[14]
  T/C: 95 % of control

## COc1ccc(N=Cc2ccc(C=Nc3ccc(OC)cc3)cc2)cc1
[10]
  T/C: 92 % of control and 94 % of control
[11]
  T/C: 96 % of control
[12]
  T/C: 88 % of control and 93 % of control

## Nc1ccc(S(=O)(=O)N/N=C/c2ccccc2[N+](=O)[O-])cc1
dose: 3.13 mg/kg/injection, schedule: Q01DX009 (ip), vehicle: saline with Tween-80
  T/C: 115 % of control
[15]
  T/C: 96 % of control and 123 % of control
[16]
  T/C: 99 % of control and 122 % of control
[17]
  T/C: 105 % of control
[1]
  T/C: 118 % of control

## O=C1c2ccccc2C(=O)C(Cl)C1Cl (stereo unspecified)
dose: 0.19 mg/kg/injection, schedule: Q01DX009 (ip), vehicle: saline with Tween-80
  T/C: 94 % of control
dose: 0.39 mg/kg/injection, schedule: Q01DX009 (ip), vehicle: saline with Tween-80
  T/C: 94 % of control
dose: 5.0 mg/kg/injection, schedule: Q01DX009 (ip), vehicle: saline
  T/C: 86 % of control

## O=C1C=C(c2ccccc2)C(O)(c2ccccc2)C1 (stereo unspecified)
[1]
  T/C: 97 % of control
[2]
  T/C: 97 % of control
[3]
  T/C: 88 % of control

## CCOC(=O)C(N)C[S][Sn]([CH3])([CH3])[Cl] (stereo unspecified)
[15]
  T/C: 105 % of control
[16]
  T/C: 88 % of control
[17]
  T/C: 100 % of control

## Cc1cccc(NC(=O)NC(C)C)c1C
[11]
  T/C: 100 % of control
dose: 100.0 mg/kg/injection, schedule: Q04DX003 (ip), vehicle: Klucel (hydroxypropylcellulose) (HPC)
  T/C: 103 % of control
[12]
  T/C: 96 % of control
dose: 200.0 mg/kg/injection, schedule: Q04DX003 (ip), vehicle: Klucel (hydroxypropylcellulose) (HPC)
  T/C: 107 % of control
dose: 400.0 mg/kg/injection, schedule: Q01DX009 (ip), vehicle: Klucel (hydroxypropylcellulose) (HPC)
  T/C: 93 % of control
dose: 400.0 mg/kg/injection, schedule: Q04DX003 (ip), vehicle: Klucel (hydroxypropylcellulose) (HPC)
  T/C: 100 % of control

## N#CC(c1ccccc1)N1CCCCC1 (stereo unspecified)
[10]
  T/C: 93 % of control
[11]
  T/C: 90 % of control

## CCS(=O)(=O)OCCCl
[17]
  T/C: 104 % of control
[1]
  T/C: 100 % of control
[2]
  T/C: 103 % of control

## Cc1ccc2oc(-c3ccccc3)c(O)c(=O)c2c1
[7]
  T/C: 106 % of control
[8]
  T/C: 108 % of control
[9]
  T/C: 104 % of control

## COc1ccc2c3c1OC1CC(O)C=CC31CCN(C)C2 (stereo unspecified)
[18]
  T/C: 106 % of control
dose: 2.5 mg/kg/injection, schedule: Q01DX009 (ip), vehicle: saline
  T/C: 103 % of control
[13]
  T/C: 105 % of control and 113 % of control
[14]
  T/C: 95 % of control

## COc1cc(Cl)c(CC(=O)c2c[nH]c3ccccc23)cc1OC
[15]
  T/C: 100 % of control
[16]
  T/C: 89 % of control

## Cc1c(Cl)cc(Cl)c(N)c1Cl
dose: 100.0 mg/kg/injection, schedule: Q04DX003 (ip), vehicle: saline with Tween-80
  T/C: 86 % of control
dose: 200.0 mg/kg/injection, schedule: Q04DX003 (ip), vehicle: saline with Tween-80
  T/C: 93 % of control
dose: 400.0 mg/kg/injection, schedule: Q04DX003 (ip), vehicle: saline with Tween-80
  T/C: 90 % of control

## Clc1nc(SC2=NCCN2)c2[nH]cnc2n1
[18]
  T/C: 93 % of control
dose: 2.5 mg/kg/injection, schedule: Q01DX009 (ip), vehicle: saline with Tween-80
  T/C: 97 % of control
[13]
  T/C: 101 % of control
[14]
  T/C: 101 % of control and 103 % of control

## NC(=O)NO
dose: 37.5 mg/kg/injection, schedule: Q03HX024 (ip), vehicle: saline
  T/C: 95 % of control and 100 % of control
dose: 75.0 mg/kg/injection, schedule: Q03HX024 (ip), vehicle: saline
  T/C: 95 % of control
dose: 150.0 mg/kg/injection, schedule: Q01DX009 (ip), vehicle: water
  T/C: 95 % of control
dose: 150.0 mg/kg/injection, schedule: Q01DX017 (ip), vehicle: water
  T/C: 93 % of control
dose: 150.0 mg/kg/injection, schedule: Q## X009 (ip), vehicle: water
  T/C: 95 % of control
dose: 300.0 mg/kg/injection, schedule: Q01DX009 (ip), vehicle: water
  T/C: 100 % of control
dose: 300.0 mg/kg/injection, schedule: Q01DX017 (ip), vehicle: water
  T/C: 97 % of control
dose: 300.0 mg/kg/injection, schedule: Q## X009 (ip), vehicle: water
  T/C: 93 % of control
dose: 600.0 mg/kg/injection, schedule: Q## X009 (ip), vehicle: water
  T/C: 100 % of control
dose: 2400.0 mg/kg/injection, schedule: Q01DX001 (ip), vehicle: water
  T/C: 100 % of control

## CC1CCCC(C)N1C1=NCCO1 (stereo unspecified)
[13]
  T/C: 100 % of control
dose: 5.0 mg/kg/injection, schedule: Q04DX003 (ip), vehicle: saline with Tween-80
  T/C: 100 % of control
[14]
  T/C: 112 % of control
dose: 10.0 mg/kg/injection, schedule: Q04DX003 (ip), vehicle: saline with Tween-80
  T/C: 97 % of control
dose: 20.0 mg/kg/injection, schedule: Q01DX009 (ip), vehicle: saline with Tween-80
  T/C: 92 % of control
dose: 20.0 mg/kg/injection, schedule: Q04DX003 (ip), vehicle: saline with Tween-80
  T/C: 100 % of control
